From US20150141411A1, “SUBSTITUTED 3,4-DIHYDRO-2H-PYRIDO[1,2-A]PYRAZINE-1,6-DIONE DERIVATIVES USEFUL FOR THE TREATMENT OF (INTER ALIA) ALZHEIMER'S DISEASE” (Janssen Pharmaceuticals, Inc., priority 2012, published 2015)

How the values were obtained:
[1] = target: T1, γ-secretase (Homo sapiens, UniProt P49768); assay: Screening for γ-secretase-modulating activity: Aβ42 in supernatant of SKNBE2 cells carrying hAPP 695 wild type (Alphalisa); format: cell-based; settings: SKNBE2 human neuroblastoma cells carrying hAPP 695 wild type, overnight incubation, Aβ42 in cell supernatant
T1 construct: endogenous in cells; host or cells: SKNBE2 human neuroblastoma cells (carrying hAPP 695 wild type as substrate)
Summary of the method: (§1)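 SKNBE2 neuroblastoma cells expressing wild-type hAPP 695 plated at 10^4 cells/well in Ultraculture with test compound, incubated overnight at 37° C. Aβ42 (C-terminal/N-terminal antibody pair) and Aβtotal (N-terminal/4G8 pair) in supernatant quantified by AlphaLISA. IC50 from 4-parameter fit of percent of compound-free control.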

[2] = tested on: Aβ42; assay: In vivo efficacy: brain soluble Aβ42 in non-transgenic rodents (MSD electrochemiluminescence multiplex); set-up: species or system mouse; settings: dose 30 mg/kg oral dosing, brain soluble fraction, animals sacrificed after 4 h; for response vs control in vivo at 30 mg/kg: Mus musculus, po, 4 h, untreated animals (Ctrl) set at 100, read-out: Aβ42 (% vs Ctrl)_Mean
Excerpt: To determine whether acute administration of an Aβ42 lowering agent would reduce Aβ42 levels in vivo, non-transgenic rodents, e.g. mice or rats were used. Animals treated with the Aβ42 lowering agent were examined and compared to those untreated or treated with vehicle and brain levels of soluble Aβ42, Aβ40, Aβ38, and Aβ37 were quantitated by Meso Scale Discovery's (MSD) electrochemiluminescence detection technology. Treatment periods varied from hours (h) to days and were adjusted based on the results of the Aβ42 lowering once a time course of onset of effect could be established.
A typical protocol for measuring Aβ42 lowering in vivo is shown but it is only one of many variations that could be used to optimize the levels of detectable Aβ. For example, Aβ42 lowering compounds were formulated in 20% of Captisol® (a sulfo-butyl ether of β-cyclodextrin) in water or 20% hydroxypropyl βcyclodextrin. The Aβ42 lowering agents were administered as a single oral dose or by any acceptable route of administration to overnight fasted animals. After 4 h, the animals were sacrificed and Aβ42 levels were analysed.
Blood was collected by decapitation and exsanguinations in EDTA-treated collection tubes. Blood was centrifuged at 1900 g for 10 minutes (min) at 4° C. and the plasma recovered and flash frozen for later analysis. The brain was removed from the cranium and hindbrain. The cerebellum was removed and the left and right hemisphere were separated. The left hemisphere was stored at −18° C. for quantitative analysis of test compound levels. The right hemisphere was rinsed with phosphate-buffered saline (PBS) buffer and immediately frozen on dry ice and stored at −80° C. until homogenization for biochemical assays.
Mouse brains from non-transgenic animals were resuspended in 8 volumes of 0.4% DEA (diethylamine)/50 mM NaCl containing protease inhibitors (Roche-11873580001 or 04693159001) per gram of tissue, e.g. for 0.158 g brain, add 1.264 ml of 0.4% DEA. All samples were homogenized in the FastPrep-24 system (MP Biomedicals) using lysing matrix D (MPBio #6913-100) at 6 m/s for 20 seconds. Homogenates were centrifuged at 20800×g for 5 min and supernatants collected. Supernatants were centrifuged at 221.300×g for 50 min. The resulting high speed supernatants were then transferred to fresh eppendorf tubes. Nine parts of supernatant were neutralized with 1 part 0.5 M Tris-HCl pH 6.8 and used to quantify Aβ.
To quantify the amount of Aβ42, Aβ40, Aβ38, and Aβ37 in the soluble fraction of the brain homogenates, simultaneous specific detection of Aβ42, Aβ40, Aβ38, and Aβ37 was performed using MSD's electro-chemiluminescence multiplex detection technology. In this assay purified monoclonal antibodies specific for Abeta37 (JRD/Aβ37/3), Abeta38 (J&JPRD/Aβ38/5), Abeta40 (JRF/cAβ40/28), and Abeta42 (JRF/cAβ42/26) were coated on MSD 4-plex plates. Briefly, the standards (a dilution of synthetic Aβ42, Aβ40, Aβ38, and Aβ37) were prepared in 1.5 ml Eppendorf tube in Ultraculture, with final concentrations ranging from 10000 to 0.3 pg/m. The samples and standards were co-incubated with Sulfo-tag labelled JRF/rAβ/2 antibody to the N-terminus of Aβ as detector antibody. 50 μl of conjugate/sample or conjugate/standards mixtures were then added to the antibody-coated plate. The plate was allowed to incubate overnight at 4° C. in order to allow formation of the antibody-amyloid complex. Following this incubation and subsequent wash steps the assay was finished by adding read buffer according to the manufacturer's instructions (Meso Scale Discovery, Gaitherburg, Md.).
The SULFO-TAG emits light upon electrochemical stimulation initiated at the electrode. MSD Sector instrument SI6000 was used for signal read-out.
In this model a Aβ42 lowering compared to untreated animals would be advantageous, in particular a Aβ42 lowering with at least 10%, more in particular a Aβ42 lowering with at least 20%. […]

[3] = target: T1, γ-secretase; assay: Screening for γ-secretase-modulating activity: Aβtotal in supernatant of SKNBE2 cells carrying hAPP 695 wild type (Alphalisa); format: cell-based; settings: SKNBE2 human neuroblastoma cells carrying hAPP 695 wild type, overnight incubation, Aβtotal in cell supernatant
Summary of the method: as §1

## Cc1cn(-c2ccc3n(c2=O)C[C@@H](C)N(Cc2cc(N4CCOC(C(F)(F)F)C4)cc(C(F)(F)F)c2)C3=O)cn1 (mixture of isomers) [compound 153]
[1]
  IC50: 60 nM
[2]
  response vs control in vivo at 30 mg/kg: 100%
[3]
  IC50: > 10000 nM

## Cc1cn(-c2ccc3n(c2=O)CCN(C(C)c2cccc(Cl)c2Cl)C3=O)cn1 (single isomer, unassigned) [10a]
[1]
  IC50: 140 nM
[3]
  IC50: > 10000 nM

## Cc1cn(-c2ccc3n(c2=O)CC(C)N(C(C)c2cc(C(F)(F)F)cc(C(F)(F)F)c2)C3=O)cn1.Cl (single isomer, unassigned) [compound 111]
[1]
  IC50: 70 nM
[2]
  response vs control in vivo at 30 mg/kg: 35%
[3]
  IC50: > 10000 nM

## Cc1cn(-c2ccc3n(c2=O)CC(C)N(C(C)c2cc(C(F)(F)F)cc(C(F)(F)F)c2)C3=O)cn1.Cl (single isomer, unassigned) [compound 112]
[1]
  IC50: 70 nM
[2]; untreated animals (Ctrl) set at 100, 30 mg/kg
  Aβ42 (% vs Ctrl)_Mean: 55 % vs Ctrl
[3]
  IC50: > 10000 nM

## CCC(c1cc(OC)cc(C(F)(F)F)c1)N1C(=O)c2ccc(-n3cnc(C)c3)c(=O)n2C[C@H]1C (single isomer, unassigned) [compound 141]
[1]
  IC50: 110 nM
[2]
  response vs control in vivo at 30 mg/kg: 85%
[3]
  IC50: > 10000 nM

## CCOc1cc(C(C)N2C(=O)c3ccc(-n4cnc(C)c4)c(=O)n3C[C@H]2C)cc(C(F)(F)F)c1 (single isomer, unassigned) [compound 143]
[1]
  IC50: 60 nM
[2]
  response vs control in vivo at 30 mg/kg: 123%
[3]
  IC50: > 10000 nM

## Cc1cn(-c2ccc3n(c2=O)CCN(C(C)c2c[nH]c4cc(F)c(Cl)cc24)C3=O)cn1 (single isomer, unassigned) [compound 183]
[1]
  IC50: 30 nM
[2]
  response vs control in vivo at 30 mg/kg: 97%
[3]
  IC50: 6760 nM

## Cc1cn(-c2ccc3n(c2=O)CCN(C(C)c2cn(C)c4cc(F)c(Cl)cc24)C3=O)cn1 (single isomer, unassigned) [compound 185]
[1]
  IC50: 20 nM
[2]
  response vs control in vivo at 30 mg/kg: 68%
[3]
  IC50: 5890 nM

## Cc1cn(-c2ccc3n(c2=O)CC(C)N(C(C)c2cn(C)c4cc(F)c(Cl)cc24)C3=O)cn1 (single isomer, unassigned) [compound 189]
[1]
  IC50: 220 nM
[2]
  response vs control in vivo at 30 mg/kg: 116%

## CCn1cc(C(C)N2C(=O)c3ccc(-n4cnc(C)c4)c(=O)n3CC2C)c2cc(Cl)c(F)cc21 (single isomer, unassigned) [compound 192]
[1]
  IC50: 10 nM
[2]
  response vs control in vivo at 30 mg/kg: 39%
[3]
  IC50: 1820 nM

## Cc1cn(-c2ccc3n(c2=O)CC(C)N(C(C)c2cn(C(C)C)c4cc(F)c(Cl)cc24)C3=O)cn1 (single isomer, unassigned) [compound 194]
[1]
  IC50: 10 nM
[2]
  response vs control in vivo at 30 mg/kg: 39%
[3]
  IC50: 1550 nM

## Cc1cn(-c2ccc3n(c2=O)CC(C)N(C(C)c2c[nH]c4c(F)cc(Cl)cc24)C3=O)cn1 (single isomer, unassigned) [compound 219]
[1]
  IC50: 20 nM
[2]
  response vs control in vivo at 30 mg/kg: 76%
[3]
  IC50: 3090 nM

## CCC1Cn2c(ccc(-n3cnc(C)c3)c2=O)C(=O)N1Cc1cc(C(F)(F)F)cc(C(F)(F)F)c1.Cl (stereo not shown) [compound 1]
[1]
  IC50: 110 nM
[3]
  IC50: > 10000 nM

## Cc1cn(-c2ccc3n(c2=O)C[C@@H](C)N(Cc2ccc(Cl)c(Cl)c2)C3=O)cn1 [compound 2]
[1]
  IC50: 170 nM
[3]
  IC50: > 10000 nM

## Cc1cn(-c2ccc3n(c2=O)CC(C)N(Cc2cc(C(F)(F)F)cc(C(F)(F)F)c2)C3=O)cn1 (stereo not shown) [compound 3]
[1]
  IC50: 100 nM
[2]
  response vs control in vivo at 30 mg/kg: 51%
[3]
  IC50: > 10000 nM

## Cc1cn(-c2ccc3n(c2=O)CCN(Cc2cccc(-c4ccccc4)c2)C3=O)cn1 [compound 5]
[1]
  IC50: 80 nM
[3]
  IC50: > 10000 nM

## Cc1cn(-c2ccc3n(c2=O)CC(C)N(Cc2cc(OCC4CC4)cc(C(F)(F)F)c2)C3=O)cn1.Cl (stereo not shown) [compound 6]
[1]
  IC50: 70 nM
[2]
  response vs control in vivo at 30 mg/kg: 73%
[3]
  IC50: > 10000 nM

## CCc1cn(-c2ccc3n(c2=O)CC(C)N(Cc2cc(C(F)(F)F)cc(C(F)(F)F)c2)C3=O)cn1.Cl (stereo not shown) [compound 7]
[1]
  IC50: 140 nM
[3]
  IC50: > 10000 nM

## Cc1cn(-c2ccc3n(c2=O)CCN(Cc2ccccc2C)C3=O)cn1 [compound 22]
[1]
  IC50: 2570 nM
[3]
  IC50: > 10000 nM

## Cc1cn(-c2ccc3n(c2=O)C[C@@H](C)N(Cc2cccc(C(C)(C)C)c2)C3=O)cn1 [compound 23]
[1]
  IC50: 140 nM
[3]
  IC50: > 10000 nM

## Cc1cn(-c2ccc3n(c2=O)C[C@@H](C)N(Cc2ccc(C(F)(F)F)c(C(F)(F)F)c2)C3=O)cn1 [compound 46]
[1]
  IC50: 140 nM
[3]
  IC50: > 10000 nM

## Cc1cn(-c2ccc3n(c2=O)C[C@@H](C)N(CCc2cc(C(F)(F)F)cc(C(F)(F)F)c2)C3=O)cn1 [compound 50]
[1]
  IC50: 40 nM
[2]
  response vs control in vivo at 30 mg/kg: 99%
[3]
  IC50: > 10000 nM

## Cc1cc(CN2C(=O)c3ccc(-n4cnc(C)c4)c(=O)n3C[C@H]2C)cc(C(F)(F)F)c1 [compound 59]
[1]
  IC50: 180 nM
[3]
  IC50: > 10000 nM

## Cc1cn(-c2ccc3n(c2=O)C[C@@H](C)N(Cc2ccc(Cl)c(C(F)(F)F)c2)C3=O)cn1 [compound 62]
[1]
  IC50: 130 nM
[3]
  IC50: > 10000 nM

## Cc1cn(-c2ccc3n(c2=O)C[C@@H](C)N(Cc2cc(Cl)cc(C(F)(F)F)c2)C3=O)cn1 [compound 63]
[1]
  IC50: 190 nM
[3]
  IC50: > 10000 nM

## Cc1cn(-c2ccc3n(c2=O)CCN(Cc2ccc(Cl)c(C(F)(F)F)c2)C3=O)cn1 [compound 65]
[1]
  IC50: 370 nM
[3]
  IC50: > 10000 nM

## Cc1cn(-c2ccc3n(c2=O)C[C@@H](C)N(Cc2cc(N4CCC(C)CC4)ccc2Cl)C3=O)cn1 [compound 80]
[1]
  IC50: 100 nM
[2]
  response vs control in vivo at 30 mg/kg: 148%
[3]
  IC50: > 10000 nM

## Cc1cn(-c2ccc3n(c2=O)C[C@@H](C)N(Cc2cc(N4CCCC4)ccc2Cl)C3=O)cn1 [compound 82]
[1]
  IC50: 110 nM
[2]
  response vs control in vivo at 30 mg/kg: 103%
[3]
  IC50: > 10000 nM

## Cc1cn(-c2ccc3n(c2=O)CCN(Cc2ccc(C)c(N4CCCCC4)c2)C3=O)cn1 [compound 99]
[1]
  IC50: 170 nM
[3]
  IC50: > 10000 nM

## Cc1cn(-c2ccc3n(c2=O)C[C@@H](C)N(Cc2cc(CC4CC4)cc(C(F)(F)F)c2)C3=O)cn1 [compound 110]
[1]
  IC50: 40 nM
[2]
  response vs control in vivo at 30 mg/kg: 88%
[3]
  IC50: > 10000 nM

## Cc1cn(-c2ccc3n(c2=O)C[C@@H](C)N(Cc2cc(C4CC4)cc(C(F)(F)F)c2)C3=O)cn1 [compound 116]
[1]
  IC50: 80 nM
[2]
  response vs control in vivo at 30 mg/kg: 75%
[3]
  IC50: > 10000 nM

## C[C@@H]1Cn2c(ccc(-n3cnc(Cl)c3)c2=O)C(=O)N1Cc1cc(C(F)(F)F)cc(C(F)(F)F)c1 [compound 118]
[1]
  IC50: 190 nM
[2]
  response vs control in vivo at 30 mg/kg: 92%
[3]
  IC50: > 10000 nM

## Cc1cn(-c2ccc3n(c2=O)C[C@@H](C)N(Cc2cc(OC(C)C)nc(C(F)(F)F)c2)C3=O)cn1 [compound 128]
[1]
  IC50: 90 nM
[2]
  response vs control in vivo at 30 mg/kg: 60%
[3]
  IC50: > 10000 nM
